pIC50: −log10 of the molar value. Where “and” joins values, the source holds several entries; their conditions need not be identical. Equal entries are not always repeated. Bounds are passed on as bounds.

One assay deals with SARS-CoV-2 3CL protease (Severe acute respiratory syndrome coronavirus 2, UniProt P0DTD1). In words: biochemical. The note with it: 50% SARS-CoV-2 3CL protease inhibitory concentration, given as class symbols; read-out: IC50.
Turning to `Cn1cnc(Cn2c(=O)nc(Nc3cc4cn(CC5(N)CC5)nc4cc3Cl)n(Cc3cc(F)c(F)c(Cl)c3)c2=O)n1` [II-0558], the pIC50 (commonly the IC50 on a negative log10 scale, so that one unit is a factor of ten) was greater than 7.00.

The assay is the same for the next values; noted with them: IC50.
In turn, `Cc1cncc(-n2c(=O)nc(Nc3ccc(N=S4(=O)CCCC4)cc3)n(Cc3cc(Cl)ccc3C)c2=O)c1` [II-0618] gave a pIC50 greater than 7.00. The same measure, in the same setting: as for `COc1ccc(Cc2nc(=O)n(Cc3ccc[nH]c3=O)c(=O)n2Cc2cc(F)c(F)c(F)c2)cc1` [II-0327], the figure is 5.82; as for `COc1ccc(Nc2nc(=O)n(Cc3cc(C(=O)O)c[nH]c3=O)c(=O)n2Cc2cc(F)c(F)c(F)c2)cc1` [Compound I-0089], greater than 7.00; as for `CCOc1c(F)cc(F)cc1Cn1c(Nc2cc3cn(C)nc3cc2Cl)nc(=O)n(Cc2ncn(C)n2)c1=O` [II-0638], greater than 7.00. Same read-out and setting: with `COc1ccc(Nc2nc(=O)n(Cc3cc4ccncc4[nH]c3=O)c(=O)n2Cc2cc(F)c(F)c(F)c2)cc1` [Compound I-0080] the figure was greater than 7.00; with `Cc1cncc(-n2c(=O)nc(Nc3ccc4[nH]ncc4c3)n(Cc3ccc(F)c(C#N)c3)c2=O)c1` [II-0206], greater than 7.00; with `Cn1cnc(Cn2c(=O)nc(Nc3cc4cn(C)nc4cc3Cl)n(CC3CCCC3)c2=O)n1` [II-0605], 5.00 to 6.00.

Compound `Cn1cnc(Cn2c(=O)nc(Nc3cc4cn(CC(=O)N5CCC5)nc4cc3Cl)n(Cc3cc(F)c(F)c(Cl)c3)c2=O)n1` [II-0153] had a pIC50 greater than 7.00. Still for that read-out and setting: as for `COc1ccc(Nc2nc(=O)n(Cc3cc(C(=O)NCCN(C)C)c[nH]c3=O)c(=O)n2Cc2cc(F)c(F)c(F)c2)cc1` [Compound I-0092], the figure is greater than 7.00; as for `CN1CC[C@H](n2cc3cc(Nc4nc(=O)n(Cc5ncn(C)n5)c(=O)n4Cc4cc(F)c(F)cc4F)c(Cl)cc3n2)C1=O` [II-0465], greater than 7.00. In the case of `Cn1cnc2cc(Cl)c(Nc3nc(=O)n(Cc4ccc[nH]c4=O)c(=O)n3Cc3cc(F)c(F)c(F)c3)cc2c1=O` [Compound I-0097], the pIC50 is greater than 7.00. Same read-out and setting: with `Cn1cnc(Cn2c(=O)nc(Nc3cc4sc(NCC(F)F)nc4cc3Cl)n(Cc3ccc(F)c(C#N)c3)c2=O)n1` [II-0502] the figure was greater than 7.00.

On to `COc1ccc(Nc2nc(=O)n(Cc3ccc[nH]c3=O)c(=O)n2Cc2nc3ccccc3s2)cc1` [Compound I-0223], for which the pIC50 was 5.37 and 5.00 to 6.00. `Cn1cnc(Cn2c(=O)nc(Nc3cc4cn(CC(=O)N5CC(F)(F)C5)nc4cc3Cl)n(Cc3cc(F)c(F)c(Cl)c3)c2=O)n1` [II-0143]: the pIC50 was greater than 7.00. Same read-out and setting: with `Cn1cnc(Cn2c(=O)nc(Nc3cc4cn(C)nc4cc3Cl)n(CC3CCC(F)(F)CC3)c2=O)n1` [II-0607] the figure was 6.00 to 7.00.

In turn, `Cn1cnc(Cn2c(=O)nc(Nc3cc4cn(CC(=O)O)nc4cc3Cl)n(Cc3cc(F)c(F)c(Cl)c3)c2=O)n1` [II-0321] showed a pIC50 greater than 7.00.

The compound `COc1ccc(Nc2nc(=O)n(Cc3ccc(C(=O)N(C)C)[nH]c3=O)c(=O)n2Cc2cc(F)c(F)c(F)c2)cc1` [Compound I-0072] showed a pIC50 greater than 7.00. Compound `Cc1cncc(-n2c(=O)nc(Nc3cc4cn(C)nc4cc3Cl)n(Cc3nc(Cl)c(Cl)n3C)c2=O)c1` [II-0021] had a pIC50 of 5.44.

In turn, `COc1ccc(Nc2nc(=O)n(Cc3ccc[nH]c3=O)c(=O)n2Cc2cc(F)c(F)c(F)c2)c(O)c1` [Compound I-0056] showed a negative logarithm of the IC50 (pIC50) greater than 7.00. `Cc1cncc(-n2c(=O)nc(Nc3cc4c(cc3C)nc(C)n4C)n(Cc3ccc(F)c(C#N)c3)c2=O)c1` [II-0358]: the pIC50 was greater than 7.00. On the same count and under the same terms, as for `Cn1cnc(Cn2c(=O)nc(Nc3cc4cn(C)nc4cc3Cl)n(Cc3cc(Cl)cc(F)c3Cl)c2=O)n1` [II-0640], the figure is greater than 7.00; as for `CC(=O)NCCn1cc2cc(Nc3nc(=O)n(Cc4cc(Cl)c[nH]c4=O)c(=O)n3Cc3cc(F)c(F)c(F)c3)c(Cl)cc2n1` [Compound I-0453], greater than 7.00. On the same count and under the same terms, with `CCc1nc2cc(Cl)c(Nc3nc(=O)n(Cc4ccc[nH]c4=O)c(=O)n3Cc3cc(F)c(F)c(F)c3)cc2n1C` [Compound I-0399] the figure was greater than 7.00; with `COc1ccc(Nc2nc(=O)n(Cc3cc(C(=O)NCc4cnn(C)c4)c[nH]c3=O)c(=O)n2Cc2cc(F)c(F)c(F)c2)cc1` [II-0324], greater than 7.00; with `Cn1cnc(Cn2c(=O)nc(Nc3cc4cn(CC(=O)N5CC(F)(F)C5)nc4cc3Cl)n(Cc3cc(Cl)c(F)cc3F)c2=O)n1` [II-0136], greater than 7.00. In the case of `CNC(=O)c1cccc(C2(Nc3nc(=O)n(Cc4ccc[nH]c4=O)c(=O)n3Cc3cc(F)c(F)c(F)c3)CCC2)c1` [II-0481], the pIC50 was 7.00.

In the case of `Cc1nc2cc(Cl)c(Nc3nc(=O)n(Cc4ccc[nH]c4=O)c(=O)n3Cc3cc(F)c(F)c(C#N)c3)cc2n1C` [Compound I-0010], the pIC50 is greater than 7.00. For the compound `Cc1cncc(-n2c(=O)nc(Nc3ccc(N=S(C)(C)=O)cc3C)n(Cc3cc(Cl)ccc3C)c2=O)c1` [II-0631], the pIC50 is greater than 7.00. Still for that read-out and setting: as for `Cc1cnc(NC23CC(Nc4nc(=O)n(Cc5ccc[nH]c5=O)c(=O)n4Cc4cc(F)c(F)c(F)c4)(C2)C3)nc1` [II-0444], the figure is greater than 7.00; as for `Cn1cnc(Cn2c(=O)nc(Nc3cc4cn(C)nc4cc3Cl)n(CC3CCCCC3)c2=O)n1` [II-0606], 6.00 to 7.00; as for `Cn1cnc(Cn2cc3cc(Nc4nc(=O)n(Cc5ncn(C)n5)c(=O)n4Cc4cc(F)c(F)c(Cl)c4)c(Cl)cc3n2)n1` [II-0004], greater than 7.00.

For `Cc1c[nH]nc1[C@@H]1C[C@H]1Nc1nc(=O)n(Cc2ccc[nH]c2=O)c(=O)n1Cc1cc(F)c(F)c(F)c1` (racemic) [II-0373], the pIC50 is 6.37. Same read-out and setting: with `Cc1cncc(-n2c(=O)nc(Nc3cc4c(=O)n(C)cnc4cc3Cl)n(Cc3ccc(F)c(C#N)c3)c2=O)c1` [II-0467] the figure was greater than 7.00. Still for that read-out and setting: as for `COc1ccc(Nc2nc(=O)n(Cc3c[nH]c(=O)[nH]c3=O)c(=O)n2Cc2cc(F)c(F)c(F)c2)cc1` [Compound I-0099], the figure is greater than 7.00; as for `Cn1cnc(Cn2c(=O)nc(NC34CC(Nc5ncc(F)cn5)(C3)C4)n(Cc3cc(F)c(F)c(F)c3)c2=O)n1` [II-0473], greater than 7.00; as for `CNC(=O)Cn1c(=O)[nH]/c(=N\c2ccc(OC(F)F)cc2C)n(Cc2cc(F)c(F)c(F)c2)c1=O` [II-0331], 5.00 to 6.00.

`Cn1cnc(Cn2c(=O)nc(Nc3cc4cn(CC(=O)N5CCCC5)nc4cc3Cl)n(Cc3cc(Cl)c(F)cc3F)c2=O)n1` [II-0138] had a negative logarithm of the IC50 (pIC50) greater than 7.00. Same read-out and setting: with `COc1cc(OC)nc(NC23CC(Nc4nc(=O)n(CC5=CC=CNC5C)c(=O)n4Cc4cc(F)c(F)c(F)c4)(C2)C3)n1` (centres unmarked) [II-0626] the figure was greater than 7.00; with `Cc1nc2cc(Cl)c(Nc3nc(=O)n(Cc4ncn(C)n4)c(=O)n3Cc3cc(F)c(F)cc3F)cc2n1C` [II-0019], greater than 7.00; with `COc1cnc(NC23CC(Nc4nc(=O)n(Cc5ccc[nH]c5=O)c(=O)n4Cc4cc(F)c(F)c(F)c4)(C2)C3)nc1` [II-0441], greater than 7.00.

`COc1ccc(Nc2nc(=O)n(Cc3ccc(C(=O)NCCN(C)C)[nH]c3=O)c(=O)n2Cc2cc(F)c(F)c(F)c2)cc1` [Compound I-0074]: the pIC50 is greater than 7.00. In turn, `CNC(=O)Cn1c(=O)[nH]/c(=N\c2cc3cn(C)nc3cc2Cl)n(Cc2cc(F)c(F)c(F)c2)c1=O` [II-0328] showed a pIC50 greater than 7.00. Regarding `CNC(=O)CCn1c(=O)nc(Nc2cc3cn(C)nc3cc2Cl)n(Cc2cc(F)c(F)cc2F)c1=O` [II-0643], the pIC50 is 6.00. Compound `CC(=O)Nc1nc2cc(Cl)c(Nc3nc(=O)n(Cc4ncn(C)n4)c(=O)n3Cc3cc(F)c(F)c(F)c3)cc2s1` [II-0310] showed a pIC50 greater than 7.00. The same measure, in the same setting: with `COc1ccc(Nc2nc(=O)n(Cc3cc(C)on3)c(=O)n2Cc2cc(F)c(F)c(F)c2)cc1` [Compound I-0334] the figure was 6.06 and 6.00 to 7.00; with `Cn1cc2cc(Nc3nc(=O)n(Cc4ccc[nH]c4=O)c(=O)n3Cc3cc(F)c(F)c(F)c3)ccc2n1` [Compound I-0143], greater than 7.00.

For `O=c1cc(Cl)c(Nc2nc(=O)n(Cc3ccc[nH]c3=O)c(=O)n2Cc2cc(F)c(F)c(F)c2)c[nH]1` [Compound I-0246], the pIC50 is greater than 7.00. Still for that read-out and setting: as for `Cn1cnc(Cn2c(=O)nc(Nc3cc4cn(C)nc4cc3Cl)n(Cc3cc(F)cc4c3OCOC4)c2=O)n1` [II-0211], the figure is greater than 7.00; as for `Cn1cnc(Cn2c(=O)nc(Nc3cc4cn(C)nc4cc3Cl)n(Cc3cc(Cl)c(F)cn3)c2=O)n1` [II-0542], greater than 7.00; as for `Cn1cnc(Cn2c(=O)nc(Nc3cc4oc(N)nc4cc3Cl)n(Cc3cc(F)c(F)c(F)c3)c2=O)n1` [II-0511], greater than 7.00. The same measure, in the same setting: as for `CNC(=O)c1c[nH]c(=O)c(Cn2c(=O)nc(Nc3cc4cn(C)nc4cc3Cl)n(Cc3cc(F)c(F)c(F)c3)c2=O)c1` [Compound I-0477], the figure is greater than 7.00; as for `Cn1cnc(Cn2c(=O)cc(Nc3cc4cn(CC(F)F)nc4cc3Cl)n(Cc3ccc(F)c(C#N)c3)c2=O)n1` [II-0432], greater than 7.00; as for `Cc1cncc(-n2c(=O)nc(Nc3ccc(N=S4(=O)CCCC4)cc3F)n(Cc3cc(Cl)ccc3C)c2=O)c1` [II-0616], greater than 7.00. Same read-out and setting: with `Cn1cc2cc(Nc3nc(=O)n(Cc4cc5ccsc5[nH]c4=O)c(=O)n3Cc3ccc(F)c(C#N)c3)ccc2n1` [II-0009] the figure was greater than 7.00. On to `Cn1nnc2cc(Cl)c(Nc3nc(=O)n(Cc4ccc[nH]c4=O)c(=O)n3Cc3cc(F)c(F)c(F)c3)cc21` [Compound I-0440], for which the pIC50 was greater than 7.00. On the same count and under the same terms, as for `CCNC(=O)Cn1cc2cc(Nc3nc(=O)n(Cc4ncn(C)n4)c(=O)n3Cc3cc(Cl)c(F)cc3F)c(Cl)cc2n1` [II-0151], the figure is greater than 7.00. The compound `O=c1[nH]cccc1Cn1c(=O)nc(NC23CC(Nc4nc(Cl)cc(Cl)n4)(C2)C3)n(Cc2cc(F)c(F)c(F)c2)c1=O` [II-0622] showed a pIC50 greater than 7.00. With `COc1ccc(Nc2nc(=O)n(Cc3cnc(C)[nH]c3=O)c(=O)n2Cc2cc(F)c(F)c(F)c2)cc1` [Compound I-0403], the negative-log IC50 (pIC50) is 6.51 and 6.00 to 7.00. The same measure, in the same setting: as for `O=c1[nH]cccc1Cn1c(=O)nc(N[C@@H]2CCN(c3ccccn3)C2)n(Cc2cc(F)c(F)c(F)c2)c1=O` [II-0374], the figure is 5.46; as for `CNC(=O)c1ccc(Nc2nc(=O)n(Cc3ccc[nH]c3=O)c(=O)n2Cc2cc(F)c(F)c(F)c2)cc1` [Compound I-0149], 5.46 and 5.00 to 6.00; as for `Cn1cnc2ccc(Nc3nc(=O)n(Cc4ccc[nH]c4=O)c(=O)n3Cc3cc(F)c(F)c(F)c3)cc21` [Compound I-0144], greater than 7.00.

These data come from patent publication US12559474B2, “Triazine derivatives having virus replication inhibitory activity and pharmaceutical composition comprising the same” (priority 2021, dated 2026).
